{"source": "patent US8101605B2", "about": "“SHIP1 modulators and methods related thereto” (Aquinox Pharmaceuticals Inc., priority 2009, dated 2012)", "format_in_all_cases": "in vivo", "key": {"[1]": {"test_system": "allergen-induced passive cutaneous anaphylaxis", "test": "Passive cutaneous anaphylaxis in rats", "details": "oral gavage", "method": "The activity of representative compounds on passive cutaneous anaphylaxis in rats was evaluated according to the procedures disclosed by Goose et al., Immunology 16, 749-760, 1969, which is incorporated herein by reference in its entirety. To induce a passive cutaneous anaphylaxis, rats underwent dorsal intradermal inoculation with 50 μL of anti-ovalbumin-IgE. Sixteen hours after inoculation, all rats were administered test compound by oral gavage (PO). Sixty minutes after oral administration, rats were given a tail vein injection of 5 mg Evan's blue and 1 mg ovalbumin. Sixty minutes following the ovalbumin injection, rats were euthanized using CO2 inhalation. Subsequently, skin edema was visualized, measured and scored. When tested in this assay, representative Compound."}, "[2]": {"test_system": "carrageenan-induced paw edema", "test": "Carrageenan paw edema in mice", "details": "oral, doses less than 30 mg/kg, 4 hours after carrageenan", "method": "The activity of representative compounds on carrageenan paw edema in mice was evaluated according to the procedures disclosed by Winter et al., Proc Soc Exp Biol Med 111, 544-547, 1962, which is incorporated herein by reference in its entirety. To induce edema in the paw, test compounds were administered orally one hour before intraplantar injection of the right hind paw with carrageenan (50 μL of 1% suspension). Hind paw edema, as a measure of inflammation, was recorded using a plethysmometer (Ugo Basile, Italy) 4 hours after λ-carrageenan administration."}, "[3]": {"test_system": "allergen-induced passive cutaneous anaphylaxis", "test": "Passive cutaneous anaphylaxis in mice", "details": "oral gavage, doses less than 20 mg/kg", "method": "The activity of representative compounds on passive cutaneous anaphylaxis in mice was evaluated according to the procedures disclosed by Ovary, J Immunol 81, 355-357, 1958 and Halpern et al., Br J Pharmacol Chemother 20, 389-398, 1963, both of which are incorporated herein by reference in their entirety. To induce a passive cutaneous anaphylaxis, mice underwent intradermal ear inoculation on their right ear with 25 ng in 20 μL of anti-DNP-IgE. The left ears were untreated and served as negative controls. Twenty-four hours after inoculation, all mice were administered test compound by oral gavage (PO). Sixty minutes after oral administration, mice were given a tail vein injection of 2% Evan's blue (0.2 μm filtered, in 200 μL saline) followed by a second tail IV injection of 100 μg DNP-HSA (in 200 μL). Sixty minutes following the DNP-HSA injection, mice were euthanized using CO2 inhalation. Subsequently, ear biopsies were performed by taking four millimetre punches from both ears, which then underwent Evan's Blue extraction using formamide incubation in 96 well plates. Eighty μL of eluents were transferred to flat-bottom 96-well plates and absorbance read using SpectraMax M5 spectrophotometer (Molecular Devices, Sunnyvale, Calif., USA) at 620 nm. Background readings from all samples were taken at 740 nm and subtracted from the 620 nm readings. Data were reported as OD. […] Scoring in Table 4 is expressed as follows: + (1-30% inhibition); ++ (31-50% inhibition); +++ (>50% inhibition)."}}, "data": [{"smiles": "Cc1cc(O)cc2c1[C@]1(C)CC[C@H]3C(C)(C)CCC[C@]3(C)[C@H]1CO2", "note": "[Compound No. 6, (1R,10R,11S,16S)-1,3,11,15,15-pentamethyl-8-oxatetracyclo[8.8.0.0^2,7.0^11,16]octadeca-2,4,6-trien-5-ol]", "values": [{"measurement": "inhibition of allergen-induced passive cutaneous anaphylaxis", "setting": "[1]; 30 mg/kg", "value": 14, "unit": "%"}, {"measurement": "inhibition of allergen-induced passive cutaneous anaphylaxis", "setting": "[1]; 100 mg/kg", "value": 29, "unit": "%"}, {"measurement": "inhibition of carrageenan-induced paw edema", "setting": "[2]", "value": 24, "unit": "%"}, {"measurement": "Scoring: inhibition of passive cutaneous anaphylaxis", "setting": "[3]", "value": "++ (31-50% inhibition)"}]}, {"smiles": "CC1(C)CCC[C@]2(C)[C@H]3CS(=O)(=O)c4cc(O)cc(O)c4[C@]3(C)CC[C@@H]12", "note": "[Compound No. 28, (1R,10R,11S,16S)-3,5-dihydroxy-1,11,15,15-tetramethyl-8-thiatetracyclo[8.8.0.0^2,7.0^11,16]octadeca-2,4,6-triene-8,8-dione]", "values": [{"measurement": "inhibition of allergen-induced passive cutaneous anaphylaxis", "setting": "[1]; 30 mg/kg", "value": 26, "unit": "%"}, {"measurement": "inhibition of allergen-induced passive cutaneous anaphylaxis", "setting": "[1]; 100 mg/kg", "value": 38, "unit": "%"}, {"measurement": "Scoring: inhibition of passive cutaneous anaphylaxis", "setting": "[3]", "value": "+++ (>50% inhibition)"}]}]}
